Earlier results as cited in PubChem BioAssay AID1259409 (Chemical Carcinogenesis Research Information System (CCRIS), 2018).

System: rodent chemically induced tumor inhibition, incidence and multiplicity
Assay: CCRIS tumor inhibitor studies
Conditions: Dose [Inhibitor]: 0

Structure (SMILES): O=c1oc2c(O)c(O)cc3c(=O)oc4c(O)c(O)cc1c4c23
- tumour outcome (control, treated, inhibition, significance) (Carcinogen: 4-(METHYLNITROSOAMINO-1-(PYRIDYL)-1-BUTANONE, 64091-91-4, 4 G/KG DIET BEGINNING 2 WK PRIOR TO CARCINOGEN DOSE (STUDY DURATION: 18 WK), Route [Inhibitor]: ORAL, Species: MOUSE, Strain/Sex: STRAIN-A/FEMALE, Target Tissue: Type of Lesion: LUNG: ADENOMA, Dose [Carcinogen]: 2 MG IN 0.2 ML OF 0.9% NACL ONCE, Promoter: NONE USED): 100%, 100%, 0%, not significant
- tumour outcome (control, treated, inhibition, significance) (Carcinogen: 4-METHYLNITROSOAMINO-1-(PYRIDYL)-1-BUTANONE, 64091-91-4, 4 G/KG DIET BEGINNING 2 WK PRIOR TO CARCINOGEN DOSE AND CONTINUING FOR STUDY DURATION (STUDY DURATION: 18 WK), Route [Inhibitor]: ORAL, Species: MOUSE, Strain/Sex: STRAIN-A/FEMALE, Target Tissue: Type of Lesion: LUNG: ADENOMA, Dose [Carcinogen]: 62.4 UG/ML DRINKING WATER FOR 7 WK (TOTAL DOSE 9.4 MG), Promoter: NONE USED): 100%, 96%, 4%, not calculated
- tumour outcome (control, treated, inhibition, significance) (Carcinogen: 4-NITROQUINOLINE-1-OXIDE, 56-57-5, 400 PPM IN DIET FOR 7 WK BEGINNING 1 WK PRIOR TO START OF CARCINOGEN TREATMENT (STUDY DURATION: 32 WK), Route [Inhibitor]: ORAL, Species: RAT, Strain/Sex: F344/MALE, Target Tissue: Type of Lesion: TONGUE: PAPILLOMA, Dose [Carcinogen]: 20 PPM IN DRINKING WATER FOR 5 WK, Promoter: NONE USED): 1/15 (7%), 0/15 (0%), 100%, not significant
- tumour outcome (control, treated, inhibition, significance) (Carcinogen: 7,12-DIMETHYLBENZ[A]ANTHRACENE, 57-97-6', 1000 PPM IN DIET FOR DURATION OF STUDY BEGINNING CONCURRENTLY WITH CARCINOGEN TREATMENT (STUDY DURATION: 42 WK0, Route [Inhibitor]: ORAL, Species: FISH, Strain/Sex: RAINBOW TROUT/ MALE, FEMALE, Target Tissue: Type of Lesion: LIVER: TUMOR, Dose [Carcinogen]: 750 PPM IN DIET FOR 7 WK, Promoter: NONE USED): 6%, 9%, -50%, not significant
- tumour outcome (control, treated, inhibition, significance) (Carcinogen: 7,12-DIMETHYLBENZ[A]ANTHRACENE, 57-97-6, 5 UMOL IN 0.4 ML ACETONE 20 MIN PRIOR TO EACH PROMOTER DOSE (STUDY DURATION: 47 WK), Route [Inhibitor]: DERMAL, Species: MOUSE, Strain/Sex: CF-1/FEMALE, Target Tissue: Type of Lesion: SKIN: CARCINOMA, Dose [Carcinogen]: 100 NMOL IN 0.2 ML ACETONE ONCE): 67%, 17%, 75%, not calculated
- tumour outcome (control, treated, inhibition, significance) (Carcinogen: 7,12-DIMETHYLBENZ[A]ANTHRACENE, 57-97-6, 5 UMOL IN 0.4 ML ACETONE 20 MIN PRIOR TO EACH PROMOTER DOSE (STUDY DURATION: 47 WK), Route [Inhibitor]: DERMAL, Species: MOUSE, Strain/Sex: CF-1/FEMALE, Target Tissue: Type of Lesion: SKIN: PAPILLOMA, Dose [Carcinogen]: 100 NMOL IN 0.2 ML ACETONE ONCE): 94%, 54%, 43%, not calculated
- tumour outcome (control, treated, inhibition, significance) (Carcinogen: 7,12-DIMETHYLBENZ[A]ANTHRACENE, 57-97-6, 100 PPM IN DIET FOR 19 WK BEGINNING POST CARCINOGEN TREATMENT (STUDY DURATION: 42 WK), Route [Inhibitor]: ORAL, Species: FISH, Strain/Sex: RAINBOW TROUT/ MALE, FEMALE, Target Tissue: Type of Lesion: STOMACH: TUMOR, Dose [Carcinogen]: 4.16 PPM IN WATER FOR 1 HR, Promoter: NONE USED): 97%, 65%, 33%, p<0.001
- tumour outcome (control, treated, inhibition, significance) (Carcinogen: 7,12-DIMETHYLBENZ[A]ANTHRACENE, 57-97-6, 100 PPM IN DIET FOR 19 WK BEGINNING POST CARCINOGEN TREATMENT (STUDY DURATION: 42 WK), Route [Inhibitor]: ORAL, Species: FISH, Strain/Sex: RAINBOW TROUT/ MALE, FEMALE, Target Tissue: Type of Lesion: SWIM BLADDER: TUMOR, Dose [Carcinogen]: 4.16 PPM IN WATER FOR 1 HR, Promoter: NONE USED): 14%, 14%, 0%, not significant
- tumour outcome (control, treated, inhibition, significance) (Carcinogen: 7,12-DIMETHYLBENZ[A]ANTHRACENE, 57-97-6, 250 PPM IN DIET FOR 19 WK BEGINNING POST CARCINOGEN TREATMENT (STUDY DURATION: 42 WK), Route [Inhibitor]: ORAL, Species: FISH, Strain/Sex: RAINBOW TROUT/ MALE, FEMALE, Target Tissue: Type of Lesion: LIVER: TUMOR, Dose [Carcinogen]: 4.16 PPM IN WATER FOR 1HR, Promoter: NONE USED): 7%, 17%, -143%, p<0.001
- tumour outcome (control, treated, inhibition, significance) (Carcinogen: 7,12-DIMETHYLBENZ[A]ANTHRACENE, 57-97-6, 250 PPM IN DIET FOR 19 WK BEGINNING POST CARCINOGEN TREATMENT (STUDY DURATION: 42 WK), Route [Inhibitor]: ORAL, Species: FISH, Strain/Sex: RAINBOW TROUT/ MALE, FEMALE, Target Tissue: Type of Lesion: STOMACH: TUMOR, Promoter: NONE USED): 97%, 39%, 60%, p<0.001
- tumour outcome (control, treated, inhibition, significance) (Carcinogen: 7,12-DIMETHYLBENZ[A]ANTHRACENE, 57-97-6, 250 PPM IN DIET FOR 19 WK BEGINNING POST CARCINOGEN TREATMENT (STUDY DURATION: 42 WK), Route [Inhibitor]: ORAL, Species: FISH, Strain/Sex: RAINBOW TROUT/MALE, FEMALE, Target Tissue: Type of Lesion: SWIM BLADDER: TUMOR, Dose [Carcinogen]: 4.16 PPM IN WATER FOR 1HR, Promoter: NONE USED): 14%, 13%, 7%, not significant
- tumour outcome (control, treated, inhibition, significance) (Carcinogen: 7,12-DIMETHYLBENZ[A]ANTHRACENE, 57-97-6, 1000 PPM IN DIET FOR 17 WK BEGINNING POST CARCINOGEN TREATMENT (STUDY DURATION: 42 WK), Route [Inhibitor]: ORAL, Species: FISH, Strain/Sex: RAINBOW TROUT/ MALE, FEMALE, Target Tissue: Type of Lesion: STOMACH: TUMOR, Dose [Carcinogen]: 5.5 PPM IN WATER FOR 1 HR, Promoter: NONE USED): 88%, 26%, 70%, p<0.001
